{"source": "paper PMC3685872", "about": "(Bioorganic & medicinal chemistry, 2013)", "key": {"CMV": {"system": "CMV", "conditions": "cited from earlier work"}, "[1]": {"system": "Jurkat T cell acute lymphoblastic leukemia cell line", "experiment": "Anti-leukemia AlamarBlue assay in Jurkat cells", "format": "cell-based, human", "conditions": "for loss in anti-leukemic potency compared to dimer 838 / loss in anti-leukemic potency compared to oxygenated counterpart: Jurkat cells; for loss in anti-leukemic potency compared to dimer 838: relative to 838; for loss in anti-leukemic potency compared to oxygenated counterpart: phosphoryl oxygen replaced with sulfur"}, "[2]": {"system": "PHA-stimulated peripheral blood mononuclear cells (PBMCs)", "experiment": "Toxicity to nonmalignant PHA-stimulated PBMCs", "format": "cell-based", "conditions": "Homo sapiens, PBMC, 48 h, read-out: PHA-stimulated PBMC IC50"}, "[3]": {"system": "prostate cancer LNCaP cells", "conditions": "compared with standard drug doxorubicin; ref [12]; cited from earlier work"}}, "data": [{"compound": "CO[C@H]1O[C@@H]2O[C@@]3(C)CC[C@H]4[C@H](C)CC[C@@H]([C@H]1C)[C@@]24OO3", "note": "[Artemether, artemether, reference compound]", "values": [{"measurement": "activity against CMV", "setting": "CMV; as previously determined, ref [9]", "result": "weak activity"}, {"measurement": "Anti-leukemia IC50", "setting": "[1]; Jurkat T-ALL cells, 48 hours of drug treatment, AlamarBlue, average of triplicate experiments", "result": "essentially inactive"}]}, {"compound": "C[C@H]1[C@@H](CC(COP(=O)(O)Oc2ccccc2)C[C@H]2O[C@@H]3O[C@@]4(C)CC[C@H]5[C@H](C)CC[C@@H]([C@H]2C)[C@@]35OO4)O[C@@H]2O[C@@]3(C)CC[C@H]4[C@H](C)CC[C@@H]1[C@@]24OO3", "note": "(stereo partly drawn) [compound 762, monophenylphosphate ester]", "values": [{"measurement": "loss in anti-leukemic potency compared to dimer 838", "setting": "[1]", "result": 70, "unit": "fold"}, {"measurement": "IC50", "setting": "[2]", "result": "~40", "unit": "µM"}]}, {"compound": "C[C@H]1[C@@H](CC(COP2(=O)Oc3ccccc3-c3ccccc3O2)C[C@H]2O[C@@H]3O[C@@]4(C)CC[C@H]5[C@H](C)CC[C@@H]([C@H]2C)[C@@]35OO4)O[C@@H]2O[C@@]3(C)CC[C@H]4[C@H](C)CC[C@@H]1[C@@]24OO3", "note": "(stereo partly drawn) [compound 836, dimer biphenylphosphate ester]", "values": [{"measurement": "loss in anti-leukemic potency compared to dimer 838", "setting": "[1]", "result": "about half as efficacious"}]}, {"compound": "C[C@H]1[C@@H](CC(COP(=O)(Oc2ccccc2)Oc2ccccc2)C[C@H]2O[C@@H]3O[C@@]4(C)CC[C@H]5[C@H](C)CC[C@@H]([C@H]2C)[C@@]35OO4)O[C@@H]2O[C@@]3(C)CC[C@H]4[C@H](C)CC[C@@H]1[C@@]24OO3", "note": "(stereo partly drawn) [compound 838, trioxane dimer diphenyl phosphate ester]", "values": [{"measurement": "selectivity index (anti-CMV/cytotoxicity)", "setting": "CMV; ref [10]", "result": "approximately 1500"}, {"measurement": "potency at inhibiting growth of LNCaP cells", "setting": "[3]", "result": "more potent than the standard drug doxorubicin"}]}, {"compound": "C[C@H]1[C@@H](CC(COP(=O)(OC2CCCCC2)OC2CCCCC2)C[C@H]2O[C@@H]3O[C@@]4(C)CC[C@H]5[C@H](C)CC[C@@H]([C@H]2C)[C@@]35OO4)O[C@@H]2O[C@@]3(C)CC[C@H]4[C@H](C)CC[C@@H]1[C@@]24OO3", "note": "(stereo partly drawn) [compound 851, dimer dicyclohexylphosphate ester]", "values": [{"measurement": "loss in anti-leukemic potency compared to dimer 838", "setting": "[1]", "result": "about half as efficacious"}]}, {"compound": "C[C@H]1[C@@H](CC(COP2(=S)Oc3ccccc3-c3ccccc3O2)C[C@H]2O[C@@H]3O[C@@]4(C)CC[C@H]5[C@H](C)CC[C@@H]([C@H]2C)[C@@]35OO4)O[C@@H]2O[C@@]3(C)CC[C@H]4[C@H](C)CC[C@@H]1[C@@]24OO3", "note": "(stereo partly drawn) [compound 853, dimer biphenylthiophosphate ester]", "values": [{"measurement": "loss in anti-leukemic potency compared to oxygenated counterpart", "setting": "[1]", "result": "~ 9 fold"}]}, {"compound": "C[C@H]1[C@@H](CC(COP(=S)(Oc2ccccc2)Oc2ccccc2)C[C@H]2O[C@@H]3O[C@@]4(C)CC[C@H]5[C@H](C)CC[C@@H]([C@H]2C)[C@@]35OO4)O[C@@H]2O[C@@]3(C)CC[C@H]4[C@H](C)CC[C@@H]1[C@@]24OO3", "note": "(stereo partly drawn) [compound 855, dimer diphenylthiophosphate ester]", "values": [{"measurement": "loss in anti-leukemic potency compared to oxygenated counterpart", "setting": "[1]", "result": "~ 18 fold"}]}, {"compound": "Cc1cccc(C)c1OP(=O)(OCC(C[C@H]1O[C@@H]2O[C@@]3(C)CC[C@H]4[C@H](C)CC[C@@H]([C@H]1C)[C@@]24OO3)C[C@H]1O[C@@H]2O[C@@]3(C)CC[C@H]4[C@H](C)CC[C@@H]([C@H]1C)[C@@]24OO3)Oc1c(C)cccc1C", "note": "[compound 895, dimer bis-(2,6-dimethylphenyl)phosphate ester]", "values": [{"measurement": "loss in anti-leukemic potency compared to dimer 838", "setting": "[1]", "result": "comparable potency"}]}, {"compound": "CC(C)c1ccc(OP(=O)(OCC(C[C@H]2O[C@@H]3O[C@@]4(C)CC[C@H]5[C@H](C)CC[C@@H]([C@H]2C)[C@@]35OO4)C[C@H]2O[C@@H]3O[C@@]4(C)CC[C@H]5[C@H](C)CC[C@@H]([C@H]2C)[C@@]35OO4)Oc2ccc(C(C)C)cc2)cc1", "note": "[compound 923, dimer bis-(4-isopropylphenyl)phosphate ester]", "values": [{"measurement": "loss in anti-leukemic potency compared to dimer 838", "setting": "[1]", "result": 5, "unit": "fold"}]}]}
